From patent US20130252924A1, “Compounds and Methods for Treating Pain” (AKRON MOLECULES GMBH, priority 2010, published 2013)
Where a name gives a salt, the structure may show the parent alone.

molecular target: T1, human PDE4D (Homo sapiens, UniProt Q08499); assay: Measurement of PDE4D activity and determination of IC50 (scintillation bead assay, 3H-cAMP); assay type: biochemical; conditions: PDE4D inhibitor
T1 construct: The cloning of catalytic domains of human PDE4D as well as the expression and purification of the PDE catalytic domains; made in house
Experimental: The half maximal inhibitory concentration (IC50) is a measure of the effectiveness of a compound in inhibiting biological or biochemical function. Concentration-response plots are used to determine the effects of an inhibitor on an enzymatic reaction.
Measurement of phosphodiesterase activity takes advantage of the selective binding of 5-AMP or 5-GMP (and not cAMP or cGMP) to yttrium silicate beads with embedded scintillant. 0.1-1 nM PDE was incubated with 50 nM 3H-cAMP or 70 nM 3H-cGMP (Amersham, 5-60 Ci/mmol) in 50 mM Tris (pH 7.5), 8.3 mM MgCl2, 1.7 mM EGTA, and 0.01% BSA at 30 C for 30 min in 384-well assay plates. The assay was terminated by adding one-third volume of 5 mg/ml yttrium silicate beads in 18 mM ZnAcetate/ZnSO4 solution (3:1). A minimum of 30 min after mixing and centrifuging the reaction, hydrolysis was quantified by reading in a scintillation counter (Trilux, […] Wallac).

T1 sequence (Q08499 386-715 limits assumed): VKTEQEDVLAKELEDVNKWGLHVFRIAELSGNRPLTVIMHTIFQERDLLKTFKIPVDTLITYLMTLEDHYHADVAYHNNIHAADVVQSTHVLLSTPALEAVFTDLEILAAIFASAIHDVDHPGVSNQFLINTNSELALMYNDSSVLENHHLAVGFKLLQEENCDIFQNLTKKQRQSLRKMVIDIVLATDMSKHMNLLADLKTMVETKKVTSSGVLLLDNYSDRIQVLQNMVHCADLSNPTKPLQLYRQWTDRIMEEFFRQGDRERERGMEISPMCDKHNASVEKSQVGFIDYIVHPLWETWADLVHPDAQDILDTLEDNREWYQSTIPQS

Q: Which IC50 does the source give for `COc1ccc([C@H](Cc2ccncc2)c2ccccc2)cc1OC1CCCC1` [CDP-840, 4-[(2R)-2-[3-(Cyclopentyloxy)-4-methoxyphenyl]-2-phenylethyl]-pyridine hydrochloride] here?
A: 2.1 nM

Q: Which IC50 does the source give for `Cc1c[n+]([O-])ccc1CC(c1ccc(C(O)(C(F)(F)F)C(F)(F)F)cc1)c1ccc(OC(F)F)c(OC(F)F)c1` [L-826,141, 4-[2-[3,4-Bis(difluoromethoxy)phenyl]-2-[4-[2,2,2-trifluoro-1-hydroxy-1-(trifluoro-methyl)ethyl]phenyl]ethyl]-3-methylpyridine N-oxide] here?
A: 2.4 nM

Q: With `CS(=O)(=O)Nc1ccc2oc3c(OC(F)F)ccc(C(=O)Nc4c(Cl)cncc4Cl)c3c2c1` [oglemilast] as the compound, how does the IC50 read?
A: 166 nM

Q: For `O=C(Nc1c(Cl)cncc1Cl)C(=O)c1cn(Cc2ccc(F)cc2)c2ncccc12` [Ronomilast], which IC50 is on record?
A: 3.5 nM

Q: Which IC50 does the source give for `CCCOc1cc([C@]2(C)CNC(=O)O2)ccc1OC` [Daxalipram] here?
A: 1100 nM

Q: For `O=C(Nc1c(Cl)c[n+]([O-])cc1Cl)c1ccc(OC(F)F)c2oc3ccncc3c12` [Revamilast], which IC50 is on record?
A: 2.7 nM

Q: Which IC50 does the source give for `CCNc1ncn(Cc2ccc(OC)c(OC3CCCC3)c2)c2nc(C(C)C)nc1-2` [V11294, -[(3-cyclopentyloxy-4-methoxyphenyl)methyl]-N-ethyl-8-propan-2-ylpurin-6-amine:] here?
A: 200 nM

Q: With `COc1ccc(/C(C)=N/OC(N)=O)cc1OC1CCCC1` [Filaminast] as the compound, how does the IC50 read?
A: 1000 nM

Q: Which IC50 does the source give for `CCOc1ccc(-c2nc(-c3cccc(C(=O)O)n3)cs2)cc1OCC` [Tetomilast, 6-[2-(3,4-diethoxyphenyl)-1,3-thiazol-4-yl]pyridine-2-carboxylic acid] here?
A: 70 nM

Q: Which IC50 does the source give for Tolafentrine here?
A: 30 nM

Q: With `CCC1C(C)=NN=C(c2ccc(OC)c(OC)c2)c2cc(OC)c(OC)cc21` (centres unmarked) [Tofisopam, 1-(3,4-dimethoxyphenyl)-5-ethyl-7,8-dimethoxy-4-methyl-5H-2,3-benzodiazepine] as the compound, how does the IC50 read?
A: 900 nM

test system: rats with inflammatory pain induced by injection of an adjuvant (CFA); assay: not given; conditions: background statement on the positive control; cited from earlier work

Q: Which “efficacy in the CFA model” value does the source give for `COc1ccc2c(c1)c(CC(=O)O)c(C)n2C(=O)c1ccc(Cl)cc1` [indomethacin] here?
A: demonstrated efficacy

test system: rats with peripheral mononeuropathy induced by loose ligation of the sciatic nerve; assay: not given; conditions: background statement; cited from earlier work

Q: With `CC(C)C[C@H](CN)CC(=O)O` [Pregabalin] as the compound, how does the “ameliorating symptoms of pain in the CCl model” value read?
A: effective at ameliorating symptoms of pain

molecular target: T2, FRK (Homo sapiens, UniProt P42685); assay: Binding affinity (Kd), KinomeScan kinase binding assay; conditions: FRK inhibitor
T2 construct: either the full length protein or with a kinase construct that spans the catalytic domain
From the text: The assay can be performed with either the full length protein or with a kinase construct that spans the catalytic domain.

T2 sequence (P42685 whole entry, the tested form may be a part): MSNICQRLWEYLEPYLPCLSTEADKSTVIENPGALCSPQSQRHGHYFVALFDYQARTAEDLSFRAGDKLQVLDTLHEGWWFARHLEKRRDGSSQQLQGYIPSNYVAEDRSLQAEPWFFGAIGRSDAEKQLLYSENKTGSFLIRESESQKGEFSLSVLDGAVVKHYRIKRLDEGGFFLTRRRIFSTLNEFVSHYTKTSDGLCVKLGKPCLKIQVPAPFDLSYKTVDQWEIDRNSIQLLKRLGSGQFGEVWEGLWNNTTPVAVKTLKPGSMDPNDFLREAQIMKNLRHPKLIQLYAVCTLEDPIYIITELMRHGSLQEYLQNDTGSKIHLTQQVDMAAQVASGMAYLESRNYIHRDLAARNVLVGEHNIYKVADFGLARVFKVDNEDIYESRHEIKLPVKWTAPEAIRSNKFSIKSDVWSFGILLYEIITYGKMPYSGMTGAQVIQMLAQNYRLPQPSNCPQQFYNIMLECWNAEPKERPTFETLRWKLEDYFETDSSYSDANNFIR

Q: For `CCOc1cc2ncc(C#N)c(Nc3ccc(F)c(Cl)c3)c2cc1NC(=O)/C=C/CN(C)C` [Pelitinib], which Kd is on record?
A: 190 nM
